Article PMC11097163 (ACS Omega, 2024)
≈ marks a conversion by molar mass, not a printed value.

Columns and labels:
P-gp [1] = experiment: P-gp induction, intracellular accumulation of Rh123 in LS180 cells; assay type: cell-based
Caco-2 barrier = conditions: ref 50 (Lautenschlager et al.); cited from earlier work
[2] = Intrabrain distribution after IV administration; assay type: in vivo; conditions: rat, IV 10 mg/kg, 5 min after dosing
[3] = systemic circulation after oral administration of crocin; cited from earlier work
CYP2C8 = molecular target: T1, CYP2C8 (Homo sapiens, UniProt P10632); experiment: CYP inhibition in HLM, CYP2C8; assay type: biochemical; conditions: IC50 (μM), amodiaquine N-deethylation
T1 sequence (P10632 1-490): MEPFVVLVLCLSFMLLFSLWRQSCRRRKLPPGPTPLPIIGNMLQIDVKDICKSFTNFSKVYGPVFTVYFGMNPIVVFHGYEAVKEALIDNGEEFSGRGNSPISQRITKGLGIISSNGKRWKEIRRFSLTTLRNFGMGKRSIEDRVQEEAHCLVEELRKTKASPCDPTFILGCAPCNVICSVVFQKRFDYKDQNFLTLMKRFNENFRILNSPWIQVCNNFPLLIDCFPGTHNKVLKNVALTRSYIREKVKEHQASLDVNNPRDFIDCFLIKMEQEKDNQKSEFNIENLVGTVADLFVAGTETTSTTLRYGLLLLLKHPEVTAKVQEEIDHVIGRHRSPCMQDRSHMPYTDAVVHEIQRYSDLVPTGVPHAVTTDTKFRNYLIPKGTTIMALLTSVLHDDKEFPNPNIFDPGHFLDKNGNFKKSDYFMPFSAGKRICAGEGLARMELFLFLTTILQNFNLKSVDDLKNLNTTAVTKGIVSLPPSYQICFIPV

pKa, UV-metric method = assay type: physicochemical; conditions: Britton-Robinson buffer, pH 1.81
P-gp [4] = molecular target: P-gp (Homo sapiens, UniProt P08183); experiment: P-gp inhibition, intracellular accumulation of Rh123 in LS180 cells; assay type: cell-based
CYP3A4 = experiment: Western blot of liver CYP3A4 protein expression; assay type: in vivo; conditions: rat liver, crocetin with galantamine compared to only galantamine
[5] = Equilibrium solubility in biorelevant media, shake-flask method; assay type: physicochemical; conditions: water, 37 °C, thermodynamic from solid
[6] = Plasma stability in rat plasma; assay type: in vitro ADME; conditions: 5 µM, 2 h, 37°C
CYP2D6 [7] = molecular target: CYP2D6 (Homo sapiens, UniProt P10635); experiment: CYP inhibition in HLM, CYP2D6; conditions: IC50 (μM), dextromethorphan O-demethylation
[8] = Chemical stability in SGF and SIF; assay type: physicochemical; conditions: 37 °C, 10 µM
[9] = Plasma protein binding, rapid equilibrium dialysis; assay type: in vitro ADME; conditions: rat, pH 7.4
[10] = RBC partitioning in rat blood and plasma; assay type: in vitro ADME; conditions: fresh whole blood and reference plasma
GI permeability, PAMPA = assay type: in vitro ADME; conditions: pH 7.4
[11] = Pharmacokinetics and oral bioavailability after oral and IV administration; assay type: in vivo; conditions: rat
[12] = Metabolic stability in liver microsomes; assay type: in vitro ADME, human, monkey, dog, rat, mouse; conditions: MLM, RLM, DLM, MkLM, HLM; 1 mg/mL protein, 5 µM, 30 min
[13] = Organ distribution after IV administration; assay type: in vivo; conditions: rat, IV 10 mg/kg, 5 min after dosing
CYP2D6 [14] = experiment: Western blot of liver CYP2D6 protein expression; assay type: in vivo; conditions: rat liver, crocetin with donepezil compared to only donepezil
[15] = standards: high / moderate / low aqueous solubility; cited from earlier work
[16] = female, Wistar, plasma, other: oral and intravenous

Sequence of P-gp (Homo sapiens, UniProt P08183) (P08183 whole entry): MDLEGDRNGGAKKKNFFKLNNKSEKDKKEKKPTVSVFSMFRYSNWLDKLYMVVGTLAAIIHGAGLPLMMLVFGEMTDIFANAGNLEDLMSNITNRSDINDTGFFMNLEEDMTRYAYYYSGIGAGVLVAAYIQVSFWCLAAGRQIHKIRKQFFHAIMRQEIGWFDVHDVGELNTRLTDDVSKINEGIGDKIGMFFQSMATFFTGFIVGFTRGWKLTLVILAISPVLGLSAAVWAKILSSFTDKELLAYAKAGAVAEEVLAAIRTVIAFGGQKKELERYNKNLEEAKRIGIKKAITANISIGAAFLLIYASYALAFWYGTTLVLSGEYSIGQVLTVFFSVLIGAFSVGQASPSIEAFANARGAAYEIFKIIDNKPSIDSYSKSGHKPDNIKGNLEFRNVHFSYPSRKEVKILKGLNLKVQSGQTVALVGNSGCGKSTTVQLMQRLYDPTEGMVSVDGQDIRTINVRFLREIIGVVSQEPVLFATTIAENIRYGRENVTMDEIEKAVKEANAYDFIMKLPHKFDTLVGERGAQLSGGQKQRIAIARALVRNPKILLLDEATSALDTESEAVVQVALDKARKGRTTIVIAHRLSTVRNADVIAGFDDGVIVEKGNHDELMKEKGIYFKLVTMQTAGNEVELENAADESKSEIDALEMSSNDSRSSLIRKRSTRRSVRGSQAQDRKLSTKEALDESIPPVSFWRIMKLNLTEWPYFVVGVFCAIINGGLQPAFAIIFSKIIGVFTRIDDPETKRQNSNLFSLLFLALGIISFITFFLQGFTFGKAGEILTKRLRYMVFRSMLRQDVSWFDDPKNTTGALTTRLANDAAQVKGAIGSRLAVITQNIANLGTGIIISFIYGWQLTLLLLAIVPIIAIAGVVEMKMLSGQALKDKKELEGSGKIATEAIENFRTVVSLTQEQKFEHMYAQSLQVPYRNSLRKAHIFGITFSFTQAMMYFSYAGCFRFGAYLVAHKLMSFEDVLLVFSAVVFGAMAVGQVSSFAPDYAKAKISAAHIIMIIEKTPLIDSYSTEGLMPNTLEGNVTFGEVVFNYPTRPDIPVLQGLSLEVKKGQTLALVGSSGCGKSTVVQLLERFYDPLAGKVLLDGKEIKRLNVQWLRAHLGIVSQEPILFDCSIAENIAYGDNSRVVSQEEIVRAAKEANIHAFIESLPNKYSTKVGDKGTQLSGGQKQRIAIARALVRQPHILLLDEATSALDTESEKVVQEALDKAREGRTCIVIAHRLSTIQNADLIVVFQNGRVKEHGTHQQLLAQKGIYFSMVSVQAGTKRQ
Sequence of CYP2D6 (Homo sapiens, UniProt P10635) (P10635 whole entry): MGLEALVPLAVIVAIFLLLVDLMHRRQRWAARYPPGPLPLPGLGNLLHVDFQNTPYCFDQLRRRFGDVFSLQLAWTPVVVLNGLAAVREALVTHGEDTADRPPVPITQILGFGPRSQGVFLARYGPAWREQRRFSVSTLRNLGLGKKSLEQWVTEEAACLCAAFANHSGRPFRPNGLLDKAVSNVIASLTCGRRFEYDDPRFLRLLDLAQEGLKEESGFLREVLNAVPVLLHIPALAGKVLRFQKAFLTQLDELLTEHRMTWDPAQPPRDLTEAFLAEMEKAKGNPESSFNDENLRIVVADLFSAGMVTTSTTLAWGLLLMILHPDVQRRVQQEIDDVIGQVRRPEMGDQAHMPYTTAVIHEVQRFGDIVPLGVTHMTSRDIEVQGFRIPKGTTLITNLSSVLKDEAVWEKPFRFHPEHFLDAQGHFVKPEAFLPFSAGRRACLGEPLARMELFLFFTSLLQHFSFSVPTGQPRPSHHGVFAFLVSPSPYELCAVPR

Q: With `CO[C@H]1/C=C/O[C@@]2(C)Oc3c(C)c(O)c4c(O)c(c(/C=N/N5CCN(C)CC5)c(O)c4c3C2=O)NC(=O)/C(C)=C\C=C\[C@H](C)[C@H](O)[C@@H](C)[C@@H](O)[C@@H](C)[C@H](OC(C)=O)[C@@H]1C` [rifampicin, reference compound] as the compound, how does the “P-gp induction (decrease in intracellular accumulation of Rh123)” value (P-gp [1]; standard, 10 µM) read?
A: significant induction of P-gp

Q: What does the source list for `CC(/C=C/C=C(\C)C(=O)O)=C\C=C\C=C(C)\C=C\C=C(/C)C(=O)O` [crocetin]?
A: Papp (Caco-2 barrier): 2.6 ± 0.6 × 10^–5 cm/s; order of concentrations in brain parts [2]: cortex > cerebellum > hippocampus; exposure of crocetin relative to crocin [3]: 56–81 fold; IC50 (CYP2C8): 35.3 µM; pKa (pKa, UV-metric method): 5.35; P-gp inhibitory activity (P-gp [4]; Rh123, 1 to 50 μM): no marked P-gp inhibitory activity; CYP3A4 protein expression (down-regulation) (CYP3A4): 0.61 fold; solubility at 1 h [5]: 0.6 µg/mL (≈ 1.83 µM); degradation in plasma [6]: < 5%; IC50 (CYP2D6 [7]): 20.4 µM; intact (chemical stability) ([8]; SGF (pH 1.2), 2 h): 72%; intact (chemical stability) ([8]; SIF (pH 6.8), 4 h): 68%; P-gp induction (P-gp [1]; Rh123, 25–50 μM): 22–24%; fraction unbound at 4 h, 5 µM [9]: 0.03; blood plasma ratio at 0 min, 1000 nM [10]: 0.36 ± 0.01; blood plasma ratio at 60 min, 1000 nM [10]: 0.39 ± 0.04; Papp at 5 h, 5 μM (GI permeability, PAMPA): 3.89 ×10⁻⁶ cm/s; clearance [11, 16]: ≤ 16.7 mL/min/kg; half-life [11, 16]: > 2 h; maximum plasma concentration ([11]; oral 20 mg/kg): 23 µM; remaining intact in liver microsomes [12]: > 83%; order of concentrations in organs [13]: liver > lungs > heart > kidney > spleen > brain; CYP2D6 protein expression (down-regulation) (CYP2D6 [14]): 0.73 fold

Q: Which “aqueous solubility (category of the standard)” value [15] does the source give for `CCCC1O[C@@H]2C[C@H]3[C@@H]4CCC5=CC(=O)C=C[C@]5(C)[C@H]4[C@@H](O)C[C@]3(C)[C@]2(C(=O)CO)O1` (stereo partly drawn) [budesonide] here?
A: 10 to 100 µg/mL

Q: Which “aqueous solubility (category of the standard)” value [15] does the source give for `COc1ccc(CCN2CCC(Nc3nc4ccccc4n3Cc3ccc(F)cc3)CC2)cc1` [astemizole] here?
A: < 10 µg/mL

Q: For `O[C@@H](COc1cccc2ncccc12)CN1CCN([C@@H]2c3ccccc3[C@@H]3[C@H](c4ccccc42)C3(F)F)CC1` [zosuquidar, reference compound], which “P-gp inhibition (increase in intracellular accumulation of Rh123)” value (P-gp [4]; standard, 10 µM) is on record?
A: significant inhibition of P-gp
